Measurements from ChEMBL document CHEMBL3232845 (Bioorg Med Chem Lett, 2014).

Assays:
[1] = biological target: Maternal embryonic leucine zipper kinase (Homo sapiens) (UniProt Q14680); test: Inhibition of human MELK assessed as enzyme activity at 1 uM relative to control; set-up: scale not given: the % may be the effect or the level left
[2] = biological target: BDNF/NT-3 growth factors receptor (Homo sapiens) (UniProt Q16620); test: Inhibition of human TrkB assessed as enzyme activity at 1 uM relative to control; set-up: scale not given: the % may be the effect or the level left
[3] = biological target: Casein kinase II subunit alpha' (Homo sapiens) (UniProt P19784); test: Inhibition of human CK2alpha2 assessed as enzyme activity at 1 uM relative to control; set-up: scale not given: the % may be the effect or the level left
[4] = biological target: Protein kinase C zeta type (Homo sapiens) (UniProt Q05513); test: Inhibition of human PKCzeta assessed as enzyme activity at 1 uM relative to control; set-up: scale not given: the % may be the effect or the level left
[5] = Volume of distribution in mouse; assay type: ADME, organism-based; conditions: in vivo
[6] = biological target: Cyclin-dependent kinase 2/cyclin E1 (Homo sapiens) (UniProt P24864+P24941); test: Inhibition of human CDK2/cyclinE assessed as enzyme activity at 1 uM relative to control; assay type: protein-complex assay; set-up: scale not given: the % may be the effect or the level left
[7] = biological target: Protein kinase C epsilon type (Homo sapiens) (UniProt Q02156); test: Inhibition of human PKCepsilon assessed as enzyme activity at 1 uM relative to control; set-up: scale not given: the % may be the effect or the level left
Sequence of Protein kinase C epsilon type (Homo sapiens) (Q02156 whole entry): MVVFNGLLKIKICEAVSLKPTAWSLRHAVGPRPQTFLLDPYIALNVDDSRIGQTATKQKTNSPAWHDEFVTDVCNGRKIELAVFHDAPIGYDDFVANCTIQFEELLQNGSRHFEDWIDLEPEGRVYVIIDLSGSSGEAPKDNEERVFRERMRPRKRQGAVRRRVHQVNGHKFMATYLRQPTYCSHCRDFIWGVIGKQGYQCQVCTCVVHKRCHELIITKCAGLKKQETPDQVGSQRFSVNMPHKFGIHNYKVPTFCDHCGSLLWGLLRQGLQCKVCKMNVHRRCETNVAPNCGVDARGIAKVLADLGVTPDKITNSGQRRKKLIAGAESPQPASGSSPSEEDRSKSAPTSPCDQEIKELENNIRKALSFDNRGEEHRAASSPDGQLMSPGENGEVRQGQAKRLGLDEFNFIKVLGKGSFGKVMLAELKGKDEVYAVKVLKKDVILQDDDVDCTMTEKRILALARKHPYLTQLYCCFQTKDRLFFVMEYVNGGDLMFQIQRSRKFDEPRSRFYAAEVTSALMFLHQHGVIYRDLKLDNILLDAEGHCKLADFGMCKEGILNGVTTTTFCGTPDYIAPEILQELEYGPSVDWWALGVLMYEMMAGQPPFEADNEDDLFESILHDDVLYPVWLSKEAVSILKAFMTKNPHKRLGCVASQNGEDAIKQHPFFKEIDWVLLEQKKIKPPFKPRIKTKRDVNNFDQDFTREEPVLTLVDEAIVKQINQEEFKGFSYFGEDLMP

[8] = biological target: Serine/threonine-protein kinase WNK2 (Homo sapiens) (UniProt Q9Y3S1); test: Inhibition of human WNK2 assessed as enzyme activity at 1 uM relative to control; set-up: scale not given: the % may be the effect or the level left
[9] = biological target: High affinity nerve growth factor receptor (Homo sapiens) (UniProt P04629); test: Inhibition of human TrkA assessed as enzyme activity at 1 uM relative to control; set-up: scale not given: the % may be the effect or the level left
[10] = biological target: Serine/threonine-protein kinase Sgk2 (Homo sapiens) (UniProt Q9HBY8); test: Inhibition of human SGK2 assessed as enzyme activity at 1 uM relative to control; set-up: scale not given: the % may be the effect or the level left
[11] = biological target: Muscle, skeletal receptor tyrosine-protein kinase (Homo sapiens) (UniProt O15146); test: Inhibition of human MuSK assessed as enzyme activity at 1 uM relative to control; set-up: scale not given: the % may be the effect or the level left
[12] = biological target: Interleukin-1 receptor-associated kinase 1 (Homo sapiens) (UniProt P51617); test: Inhibition of human IRAK1 assessed as enzyme activity at 1 uM relative to control; set-up: scale not given: the % may be the effect or the level left
[13] = biological target: Dual specificity tyrosine-phosphorylation-regulated kinase 2 (Homo sapiens) (UniProt Q92630); test: Inhibition of human DYRK2 assessed as enzyme activity at 1 uM relative to control; set-up: scale not given: the % may be the effect or the level left
[14] = biological target: Misshapen-like kinase 1 (Homo sapiens) (UniProt Q8N4C8); test: Inhibition of human MINK assessed as enzyme activity at 1 uM relative to control; set-up: scale not given: the % may be the effect or the level left
[15] = biological target: mTOR/FKBP12A/FKBP12B (Homo sapiens) (UniProt P62942+P68106+P42345); test: Inhibition of human mTOR/FKBP12 assessed as enzyme activity at 1 uM relative to control; assay type: protein-complex assay; set-up: scale not given: the % may be the effect or the level left
Sequence of mTOR/FKBP12A/FKBP12B (Homo sapiens) (P62942 2-108 limits assumed, other chains not shown): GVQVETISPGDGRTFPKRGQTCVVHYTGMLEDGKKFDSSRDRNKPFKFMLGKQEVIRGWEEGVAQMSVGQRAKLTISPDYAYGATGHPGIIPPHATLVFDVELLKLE
Sequence of mTOR/FKBP12A/FKBP12B (Homo sapiens) (P68106 whole entry partner, other chains not shown): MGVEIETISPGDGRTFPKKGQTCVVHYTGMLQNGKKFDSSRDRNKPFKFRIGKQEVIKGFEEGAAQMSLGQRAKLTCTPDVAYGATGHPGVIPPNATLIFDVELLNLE

[16] = biological target: Receptor-type tyrosine-protein kinase FLT3 (Homo sapiens) (UniProt P36888); test: Inhibition of human Flt3 assessed as enzyme activity at 1 uM relative to control; set-up: scale not given: the % may be the effect or the level left
[17] = biological target: Homeodomain-interacting protein kinase 2 (Homo sapiens) (UniProt Q9H2X6); test: Inhibition of human HIPK2 assessed as enzyme activity at 1 uM relative to control; set-up: scale not given: the % may be the effect or the level left
[18] = biological target: Phosphorylase b kinase gamma catalytic chain, liver/testis isoform (Homo sapiens) (UniProt P15735); test: Inhibition of human PhKgamma2 assessed as enzyme activity at 1 uM relative to control; set-up: scale not given: the % may be the effect or the level left
[19] = biological target: Serine/threonine-protein kinase MARK1 (Homo sapiens) (UniProt Q9P0L2); test: Inhibition of human MARK1 assessed as enzyme activity at 1 uM relative to control; set-up: scale not given: the % may be the effect or the level left
[20] = biological target: Serine/threonine-protein kinase D1 (Homo sapiens) (UniProt Q15139); test: Inhibition of human PKD1 assessed as enzyme activity at 1 uM relative to control; set-up: scale not given: the % may be the effect or the level left
Sequence of Serine/threonine-protein kinase D1 (Homo sapiens) (Q15139 whole entry): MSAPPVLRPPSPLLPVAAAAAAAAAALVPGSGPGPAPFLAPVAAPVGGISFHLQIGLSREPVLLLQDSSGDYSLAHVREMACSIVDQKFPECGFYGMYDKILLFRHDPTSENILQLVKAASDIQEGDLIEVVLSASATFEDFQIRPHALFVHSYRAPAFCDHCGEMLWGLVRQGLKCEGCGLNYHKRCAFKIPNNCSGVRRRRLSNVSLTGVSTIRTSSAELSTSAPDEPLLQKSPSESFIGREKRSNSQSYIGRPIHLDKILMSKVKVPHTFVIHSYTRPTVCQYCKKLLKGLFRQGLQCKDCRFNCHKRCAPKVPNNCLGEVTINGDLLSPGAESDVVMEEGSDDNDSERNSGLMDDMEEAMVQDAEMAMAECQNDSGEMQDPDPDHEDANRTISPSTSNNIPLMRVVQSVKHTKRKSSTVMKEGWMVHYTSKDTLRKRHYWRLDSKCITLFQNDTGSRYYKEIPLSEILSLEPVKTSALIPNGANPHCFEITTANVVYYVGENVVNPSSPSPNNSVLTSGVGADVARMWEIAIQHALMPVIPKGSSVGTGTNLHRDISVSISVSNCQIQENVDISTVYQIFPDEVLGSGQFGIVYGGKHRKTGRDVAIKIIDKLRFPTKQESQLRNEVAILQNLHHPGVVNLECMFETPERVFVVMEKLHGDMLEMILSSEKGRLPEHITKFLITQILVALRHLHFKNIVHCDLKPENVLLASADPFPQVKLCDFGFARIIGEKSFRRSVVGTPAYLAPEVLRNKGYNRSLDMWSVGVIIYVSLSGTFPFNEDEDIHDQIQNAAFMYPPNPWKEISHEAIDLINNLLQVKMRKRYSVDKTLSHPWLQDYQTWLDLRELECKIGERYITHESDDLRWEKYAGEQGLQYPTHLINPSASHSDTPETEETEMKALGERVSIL

[21] = biological target: MAP kinase-activated protein kinase 2 (Homo sapiens) (UniProt P49137); test: Inhibition of human MAPKAP-K2 assessed as enzyme activity at 1 uM relative to control; set-up: scale not given: the % may be the effect or the level left
[22] = biological target: Protein kinase C iota type (Homo sapiens) (UniProt P41743); test: Inhibition of human PKCiota assessed as enzyme activity at 1 uM relative to control; set-up: scale not given: the % may be the effect or the level left
[23] = biological target: Glycogen synthase kinase-3 beta (Homo sapiens) (UniProt P49841); test: Inhibition of human GSK3beta assessed as enzyme activity at 1 uM relative to control; set-up: scale not given: the % may be the effect or the level left
[24] = biological target: Ribosomal protein S6 kinase alpha-4 (Homo sapiens) (UniProt O75676); test: Inhibition of human MSK2 assessed as enzyme activity at 1 uM relative to control; set-up: scale not given: the % may be the effect or the level left
[25] = biological target: Serine/threonine-protein kinase 3 (Homo sapiens) (UniProt Q13188); test: Inhibition of human MST2 assessed as enzyme activity at 1 uM relative to control; set-up: scale not given: the % may be the effect or the level left
[26] = biological target: Rhodopsin kinase GRK7 (Homo sapiens) (UniProt Q8WTQ7); test: Inhibition of human GRK7 assessed as enzyme activity at 1 uM relative to control; set-up: scale not given: the % may be the effect or the level left
[27] = biological target: Mitogen-activated protein kinase kinase kinase 5 (Homo sapiens) (UniProt Q99683); test: Inhibition of human MAP3K5 assessed as enzyme activity at 1 uM relative to control; set-up: scale not given: the % may be the effect or the level left
[28] = biological target: Serine/threonine-protein kinase MRCK alpha (Homo sapiens) (UniProt Q5VT25); test: Inhibition of human MRCKalpha assessed as enzyme activity at 1 uM relative to control; set-up: scale not given: the % may be the effect or the level left
Sequence of Serine/threonine-protein kinase MRCK alpha (Homo sapiens) (Q5VT25 whole entry): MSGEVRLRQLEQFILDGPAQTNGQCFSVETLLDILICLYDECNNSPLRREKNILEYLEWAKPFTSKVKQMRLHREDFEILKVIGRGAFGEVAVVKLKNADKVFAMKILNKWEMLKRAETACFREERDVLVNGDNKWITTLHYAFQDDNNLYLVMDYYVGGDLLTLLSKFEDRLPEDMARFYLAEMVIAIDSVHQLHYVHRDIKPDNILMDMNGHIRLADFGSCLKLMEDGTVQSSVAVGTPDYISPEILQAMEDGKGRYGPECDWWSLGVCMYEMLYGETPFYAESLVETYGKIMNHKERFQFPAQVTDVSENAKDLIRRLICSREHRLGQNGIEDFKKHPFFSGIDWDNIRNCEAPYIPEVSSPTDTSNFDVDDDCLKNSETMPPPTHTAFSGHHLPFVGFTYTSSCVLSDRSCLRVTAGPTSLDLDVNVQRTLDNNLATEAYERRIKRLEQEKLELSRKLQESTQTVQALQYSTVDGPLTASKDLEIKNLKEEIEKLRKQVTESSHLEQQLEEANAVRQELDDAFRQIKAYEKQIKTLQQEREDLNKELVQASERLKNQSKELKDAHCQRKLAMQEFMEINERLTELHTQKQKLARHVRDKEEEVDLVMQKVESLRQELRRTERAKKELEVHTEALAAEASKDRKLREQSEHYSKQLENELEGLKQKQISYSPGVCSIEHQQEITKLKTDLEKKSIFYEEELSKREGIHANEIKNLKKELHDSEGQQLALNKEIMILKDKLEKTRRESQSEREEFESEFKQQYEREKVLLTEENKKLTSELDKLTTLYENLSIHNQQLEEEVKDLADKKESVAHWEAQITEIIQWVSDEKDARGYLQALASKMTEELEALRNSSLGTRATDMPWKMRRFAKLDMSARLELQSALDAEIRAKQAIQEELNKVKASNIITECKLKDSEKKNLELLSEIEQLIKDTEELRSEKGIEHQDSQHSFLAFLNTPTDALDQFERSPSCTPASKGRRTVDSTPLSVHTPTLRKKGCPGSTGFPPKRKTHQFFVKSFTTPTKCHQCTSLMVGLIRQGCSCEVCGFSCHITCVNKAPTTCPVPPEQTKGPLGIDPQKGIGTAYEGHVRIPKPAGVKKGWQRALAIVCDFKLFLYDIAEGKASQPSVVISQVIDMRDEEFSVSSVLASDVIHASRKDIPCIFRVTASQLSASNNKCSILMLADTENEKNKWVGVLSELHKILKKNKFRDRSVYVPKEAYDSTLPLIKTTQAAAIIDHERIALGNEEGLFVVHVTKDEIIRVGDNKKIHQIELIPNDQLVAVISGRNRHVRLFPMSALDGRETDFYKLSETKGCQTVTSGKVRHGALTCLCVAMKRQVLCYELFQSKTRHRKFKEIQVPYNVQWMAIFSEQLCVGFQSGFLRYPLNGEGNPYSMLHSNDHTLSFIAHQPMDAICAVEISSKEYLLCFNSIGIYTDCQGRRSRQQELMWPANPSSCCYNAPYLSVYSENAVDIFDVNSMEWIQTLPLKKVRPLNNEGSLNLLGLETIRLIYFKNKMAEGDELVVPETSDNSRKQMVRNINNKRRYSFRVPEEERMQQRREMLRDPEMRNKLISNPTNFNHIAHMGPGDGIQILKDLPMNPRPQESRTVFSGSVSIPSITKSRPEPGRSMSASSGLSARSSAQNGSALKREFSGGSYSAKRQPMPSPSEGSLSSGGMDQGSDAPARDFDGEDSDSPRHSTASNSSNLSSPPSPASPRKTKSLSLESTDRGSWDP

[29] = biological target: 3-phosphoinositide-dependent protein kinase 1 (Homo sapiens) (UniProt O15530); test: Inhibition of human PDK1 assessed as enzyme activity at 1 uM relative to control; set-up: scale not given: the % may be the effect or the level left
Sequence of 3-phosphoinositide-dependent protein kinase 1 (Homo sapiens) (O15530 whole entry): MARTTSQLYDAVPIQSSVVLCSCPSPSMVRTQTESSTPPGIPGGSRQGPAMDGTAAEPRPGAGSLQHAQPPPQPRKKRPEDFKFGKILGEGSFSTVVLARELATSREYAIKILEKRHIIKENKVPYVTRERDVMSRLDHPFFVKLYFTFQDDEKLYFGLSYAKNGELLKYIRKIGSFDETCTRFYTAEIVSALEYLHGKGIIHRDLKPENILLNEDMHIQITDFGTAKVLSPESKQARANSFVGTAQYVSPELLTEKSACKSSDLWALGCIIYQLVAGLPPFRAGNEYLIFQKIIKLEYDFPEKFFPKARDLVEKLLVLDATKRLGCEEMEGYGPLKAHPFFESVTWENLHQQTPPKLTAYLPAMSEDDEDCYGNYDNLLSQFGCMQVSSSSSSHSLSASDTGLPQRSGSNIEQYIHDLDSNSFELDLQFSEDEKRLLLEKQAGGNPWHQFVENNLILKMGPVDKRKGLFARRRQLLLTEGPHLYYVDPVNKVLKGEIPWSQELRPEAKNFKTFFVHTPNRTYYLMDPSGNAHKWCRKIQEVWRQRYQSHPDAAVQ

[30] = biological target: Tyrosine-protein kinase Fer (Homo sapiens) (UniProt P16591); test: Inhibition of human Fer assessed as enzyme activity at 1 uM relative to control; set-up: scale not given: the % may be the effect or the level left
[31] = biological target: Ribosomal protein S6 kinase alpha-6 (Homo sapiens) (UniProt Q9UK32); test: Inhibition of human Rsk4 assessed as enzyme activity at 1 uM relative to control; set-up: scale not given: the % may be the effect or the level left
[32] = biological target: Insulin-like growth factor 1 receptor (Homo sapiens) (UniProt P08069); test: Inhibition of human activated IGF-1R assessed as enzyme activity at 1 uM relative to control; set-up: scale not given: the % may be the effect or the level left
[33] = biological target: Tyrosine-protein kinase Mer (Homo sapiens) (UniProt Q12866); test: Inhibition of human Mer assessed as enzyme activity at 1 uM relative to control; set-up: scale not given: the % may be the effect or the level left
[34] = biological target: Serine/threonine-protein kinase STK11 (Homo sapiens) (UniProt Q15831); test: Inhibition of human LKB1 assessed as enzyme activity at 1 uM relative to control; set-up: scale not given: the % may be the effect or the level left
[35] = biological target: Serine/threonine-protein kinase VRK2 (Homo sapiens) (UniProt Q86Y07); test: Inhibition of human VRK2 assessed as enzyme activity at 1 uM relative to control; set-up: scale not given: the % may be the effect or the level left
[36] = biological target: Tyrosine-protein kinase Fes/Fps (Homo sapiens) (UniProt P07332); test: Inhibition of human Fes assessed as enzyme activity at 1 uM relative to control; set-up: scale not given: the % may be the effect or the level left
Sequence of Tyrosine-protein kinase Fes/Fps (Homo sapiens) (P07332 whole entry): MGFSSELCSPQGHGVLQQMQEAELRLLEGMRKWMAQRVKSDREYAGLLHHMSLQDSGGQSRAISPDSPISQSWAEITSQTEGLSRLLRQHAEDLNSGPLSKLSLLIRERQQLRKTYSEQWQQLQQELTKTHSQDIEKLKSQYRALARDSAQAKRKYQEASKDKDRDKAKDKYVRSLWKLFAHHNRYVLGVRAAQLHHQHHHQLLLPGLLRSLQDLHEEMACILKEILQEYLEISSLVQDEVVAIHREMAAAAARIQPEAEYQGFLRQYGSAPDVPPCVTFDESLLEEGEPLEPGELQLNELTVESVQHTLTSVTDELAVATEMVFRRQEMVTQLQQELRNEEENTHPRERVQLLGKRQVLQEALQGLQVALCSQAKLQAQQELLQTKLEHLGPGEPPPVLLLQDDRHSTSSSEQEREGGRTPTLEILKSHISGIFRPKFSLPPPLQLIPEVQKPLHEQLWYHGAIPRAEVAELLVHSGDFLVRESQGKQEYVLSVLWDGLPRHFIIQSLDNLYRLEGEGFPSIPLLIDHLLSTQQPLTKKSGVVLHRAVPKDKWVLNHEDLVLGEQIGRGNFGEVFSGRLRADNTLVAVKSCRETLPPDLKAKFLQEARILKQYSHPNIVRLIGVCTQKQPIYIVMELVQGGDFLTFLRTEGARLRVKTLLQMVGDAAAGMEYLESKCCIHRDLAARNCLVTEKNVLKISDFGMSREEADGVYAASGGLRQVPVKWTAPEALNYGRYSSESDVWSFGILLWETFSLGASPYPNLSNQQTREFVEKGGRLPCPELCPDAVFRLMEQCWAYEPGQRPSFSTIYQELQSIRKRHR

[37] = biological target: Tyrosine-protein kinase Yes (Homo sapiens) (UniProt P07947); test: Inhibition of human Yes assessed as enzyme activity at 1 uM relative to control; set-up: scale not given: the % may be the effect or the level left

- Activity [1]: 109%
- Activity [2]: 86%
- Activity [3]: 99%
- Activity [4]: 103%
- Vd [5]: 0.25 L/kg
- Activity [6]: 106%
- Activity [7]: 99.5%
- Activity [8]: 100%
- Activity [9]: 103%
- Activity [10]: 109%
- Activity [11]: 95%
- Activity [12]: 108%
- Activity [13]: 99%
- Activity [14]: 106%
- Activity [15]: 104%
- Activity [16]: 102%
- Activity [17]: 100%
- Activity [18]: 112%
- Activity [19]: 117%
- Activity [20]: 127%
- Activity [21]: 97%
- Activity [22]: 102%
- Activity [23]: 95.5%
- Activity [24]: 111%
- Activity [25]: 99.5%
- Activity [26]: 103%
- Activity [27]: 96%
- Activity [28]: 127%
- Activity [29]: 105%
- Activity [30]: 114%
- Activity [31]: 120%
- Activity [32]: 84%
- Activity [33]: 89.5%
- Activity [34]: 90.5%
- Activity [35]: 102%
- Activity [36]: 92%
- Activity [37]: 103%
SMILES: CCCS(=O)(=O)Nc1cccc(Nc2ccc3ncn(C)c(=O)c3c2)c1C#N
